Assay results: paper PMC10783114, “Establishment of a screening platform based on human coronavirus OC43 for the identification of microbial natural products with antiviral activity” (Microbiology Spectrum, 2023)
Read-outs that look alike come from different tables or passages of the source. Non-standard residues stand in square brackets, D forms with d. Residues, ends and D or L forms follow the SMILES beside them. dLac(3-vinyl) = C=CC[C@@H](O)C(=O)O; dHica = CC(C)C[C@@H](O)C(=O)O; NMeV = CN[C@H](C(=O)O)C(C)C; NMeA = CN[C@@H](C)C(=O)O; βAla = NCCC(=O)O

Assays:
in vitro = conditions: human
HCoV-OC43 [1] = assay: Resazurin-based CPE inhibition assay in HCoV-OC43-infected MRC-5 cells; format: cell-based, Human betacoronavirus OC43; conditions: for antiviral activity against HCoV-OC43 infection in MRC-5 cells (in words): tested in both assays (CPE inhibition and HCS)
HCoV-OC43 [2] = assay: High-content screening assay, anti-OC43 immunostaining of infected MRC-5 cells; format: cell-based, Human betacoronavirus OC43
MERS = conditions: marmosets infected with MERS ref 35; cited from earlier work
HCoV-OC43 [3] = system: HCoV-OC43; parameters: method as in PMID 30918074; conditions: mouse model ref 29; cited from earlier work
[4] = Resazurin cytotoxicity assay in non-infected MRC-5 cells; conditions: human
HCoV-OC43 [5] = assay: RT-qPCR of extracellular HCoV-OC43 RNA in culture supernatants; format: cell-based, Human betacoronavirus OC43; conditions: 72 h incubation
Description: Viral RNA from supernatants was purified using the Macherey-Nagel Nucleospin RNA Kit. RT-qPCR was performed in a single step using the One-Step TB Green PrimeScript RT-PCR Kit II (Takara Bio). The HCoV-OC43 nucleocapsid gene was amplified with the following primers: the forward primer 5′ […]-3′ and the reverse primer 5′ […]-3′ ([27]). A standard curve was generated with purified HCoV-RNA (Vircell).

MRC-5 cells [6] = system: MRC-5 cells
MRC-5 cells [7] = assay: Resazurin cytotoxicity assay in non-infected MRC-5 cells; conditions: MRC-5 cells
[8] = Betacoronavirus 1, MRC5, MRC-5 infected with HCoV-OC43 at 0.1 MOI, 96 h with drug, 5 days post-infection, resazurin readout, read-out: EC50 (CPE inhibition assay)
[9] = Betacoronavirus 1, OC43, MRC5, infected MRC-5, 72 h incubation with drug, 4 days post-infection, read-out: EC50 (HCS assay)
[10] = Betacoronavirus 1, OC43, MRC5, read-out: EC50 (HCS assay)
[11] = CC50, non-infected MRC-5 cells, 96 h incubation, resazurin

COc1c(C)c2c(c(O)c1C/C=C(\C)CCC(=O)OCCN1CCOCC1)C(=O)OC2 [Mycophenolate mofetil, mycophenolate mofetil]
CC50 (in vitro): > 200 µM
EC50 (HCoV-OC43 [1]; [8]): 20.7 µM
antiviral activity against HCoV-OC43 infection in MRC-5 cells (in words) (HCoV-OC43 [1]): showed activity
EC50 (HCoV-OC43 [2]; [9]): 1.91 µM
side effects in vivo (MERS): severe side effects
antiviral activity against HCoV-OC43 in a mouse model (HCoV-OC43 [3]): no antiviral activity

NC(=O)c1ncn([C@@H]2O[C@H](CO)[C@@H](O)[C@H]2O)n1 [Ribavirin, ribavirin]
CC50 at 96 h ([4]; non-infected MRC-5 cells): > 800 µM
selectivity index (HCoV-OC43 [1]): ~8
EC50 (HCoV-OC43 [1]; [8]): 118 µM
antiviral activity against HCoV-OC43 infection in MRC-5 cells (in words) (HCoV-OC43 [1]): showed activity
EC50 (HCoV-OC43 [2]; [10]): 92.1 µM

CCCCC/C=C\C/C=C\CCCCCCCC(=O)O [Linoleic acid, linoleic acid]
CC50 at 96 h (in vitro): > 40 µM
EC50 (HCoV-OC43 [1]; [8]): 25.6 µM
antiviral activity against HCoV-OC43 infection in MRC-5 cells (in words) (HCoV-OC43 [1]): showed activity
HCoV-OC43 RNA load in supernatant (HCoV-OC43 [5]; 15 µM): below 50%
toxicity against MRC-5 host cells (in words) (MRC-5 cells [6]): no evident toxicity
EC50 (HCoV-OC43 [2]; [9]): 18.3 µM

C=CC[C@H]1OC(=O)CCNC(=O)[C@H](C)N(C)C(=O)[C@H](C(C)C)N(C)C(=O)[C@H]([C@@H](C)CC)NC(=O)[C@@H]2CCCN2C1=O [Destruxin A, destruxin A] (cyclo([dLac(3-vinyl)]PI[NMeV][NMeA][βAla]))
CC50 at 96 h [4, 11]: ~10 µM
antiviral activity against HCoV-OC43 infection in MRC-5 cells (in words) (HCoV-OC43 [1]): did not have an effect
antiviral activity against HCoV-OC43 infection in MRC-5 cells (in words) (HCoV-OC43 [1]; listed as destruxin A): non-active

CC[C@H](C)[C@@H]1NC(=O)[C@@H]2CCCN2C(=O)[C@@H](CC(C)C)OC(=O)CCNC(=O)[C@H](C)N(C)C(=O)[C@H](C(C)C)N(C)C1=O [Destruxin B, destruxin B] (cyclo([dHica]PI[NMeV][NMeA][βAla]))
CC50 at 96 h [4, 11]: ~10 µM
antiviral activity against HCoV-OC43 infection in MRC-5 cells (in words) (HCoV-OC43 [1]): did not have an effect
antiviral activity against HCoV-OC43 infection in MRC-5 cells (in words) (HCoV-OC43 [1]; listed as destruxin B): non-active

O=C1OCC(Cc2ccccc2)=C1c1ccccc1 [Gymnoascolide A, gymnoascolide A]
toxicity against MRC-5 host cells (in words) (MRC-5 cells [7]): no evident toxicity
antiviral activity against HCoV-OC43 infection in MRC-5 cells (in words) (HCoV-OC43 [1]): showed activity
HCoV-OC43 RNA level in supernatant (HCoV-OC43 [5]; 40 µM): under 20%
HCoV-OC43 RNA level (viral load) in supernatant (HCoV-OC43 [5]; 80 µM): below 5%
EC50 (HCoV-OC43 [2]; infected MRC-5, 72 h incubation with drug, 4 days post-infection, read-out: EC50 (HCS assay)): 20.6 µM

CCN(CC)CCCC(C)Nc1ccnc2cc(Cl)ccc12 (stereo not drawn) [Chloroquine, chloroquine]
EC50 (HCoV-OC43 [1]; Betacoronavirus 1, OC43, MRC5, read-out: EC50 (CPE inhibition assay)): 6.22 µM
EC50 (HCoV-OC43 [2]; [10]): 1.23 µM
